# Data from patent US12310365B2 (priority 2009, dated 2025).
# Read-outs that look alike come from different tables or passages of the source.
# Key:
# Format in all cases: in vivo
# Pyricularia oryzae [1] = assay: whole plant or invertebrate; settings: topical, 168 h, read-out: Control value
# [2] = tested on: Pseudoperonospora cubensis; assay: Cucumber downy mildew curative test; settings: Pseudoperonospora cubensis, topical, 168 h, single ingredient, treatment concentration 10 ppm
# Pyricularia oryzae [3] = assay: whole plant or invertebrate; settings: topical, 168 h, read-out: Control value; remark: listed apart in the source
# [4] = tested on: Pseudoperonospora cubensis; assay: Cucumber downy mildew preventive test; settings: Pseudoperonospora cubensis, topical, 168 h; treatment concentration 10 ppm
# Phytophthora infestans [5] = assay: whole plant or invertebrate; settings: in Solanum lycopersicum, topical, 168 h, read-out: Control value
# Phytophthora infestans [6] = assay: whole plant or invertebrate; settings: in Solanum lycopersicum, topical, 168 h, read-out: Control value; remark: listed apart in the source
# Sphaerotheca fuliginea [7] = assay: Cucumber powdery mildew curative test; settings: Podosphaera fuliginea, topical, 168 h; treatment concentration 10 ppm
# [8] = tested on: Botrytis cinerea (Diethofencarb-resistant strain); assay: Tomato gray mold preventive test (Diethofencarb-resistant strain); settings: Botrytis cinerea, topical, 48 h, read-out: Control value
# Sphaerotheca fuliginea [9] = assay: Cucumber powdery mildew preventive test; settings: Podosphaera fuliginea, topical, 168 h; treatment concentration 10 ppm
smiles,measurement,setting,value
"CC1(C)N=C(c2cnc3ccccc3c2)c2ccccc2C1(F)F [B, 3-(4,4-difluoro-3,3-dimethyl-3,4-dihydroisoquinolin-1-yl)quinoline]",pest or weed control at 10 ppm,Pyricularia oryzae [1],86%
same,pest or weed control at 10 ppm,[2],33%
same,pest or weed control at 10 ppm,Pyricularia oryzae [3],83%
same,pest or weed control at 10 ppm,[4],28%
same,pest or weed control at 10 ppm,Phytophthora infestans [5],0%
same,pest or weed control at 10 ppm,Phytophthora infestans [6],0%
same,pest or weed control at 10 ppm,Sphaerotheca fuliginea [7],73%
same,pest or weed control at 10 ppm,[8],83%
same,pest or weed control at 10 ppm,Sphaerotheca fuliginea [9],60%
